In ChEMBL document CHEMBL5550189, “Discovery of GS-7682, a Novel 4'-Cyano-Modified C-Nucleoside Prodrug with Broad Activity against Pneumo- and Picornaviruses and Efficacy in RSV-Infected African Green Monkeys” (J Med Chem, 2024):

Key:
[1] = test system: Respiratory syncytial virus; experiment: Antiviral activity against RSV A2 infected in Normal human bronchial epithelial cells incubated for 3 days by ONE-Glo luciferase assay; format: functional, organism-based; settings: A2, Epithelial cell, 72 h
[2] = test system: Respiratory syncytial virus; experiment: Antiviral activity against RSV A2 infected in human HEp-2 cells incubated for 4 days by Cell Titer Glo assay; format: functional, organism-based; settings: A2, HEp-2, 96 h
[3] = Cytotoxicity against human MT4 cells incubated for 5 days by Cell Titer Glo assay; format: toxicity, cell-based; settings: time 5 day
[4] = Cytotoxicity against human Hep-2 cells incubated for 4 to 5 days by Cell Titer Glo assay; format: toxicity, cell-based; settings: time 4-5 day
[5] = test system: Human metapneumovirus; experiment: Anti-viral activity against hMPV CAN99-81 (A1 genotype) infected in rhesus monkey LLC-MK2 cells incubated for 3 to 5 days; format: functional, organism-based
[6] = target: T1, DNA-directed RNA polymerase, mitochondrial (Homo sapiens, UniProt O00411); experiment: Inhibition of recombinant human POLRMT assessed as single-nucleotide incorporation rate at 500 uM measured for 60 mins in presence of ATP by imaging analysis relative to control; set-up: scale not given: the % may be the effect or the level left
[7] = test system: Influenza A virus; experiment: Anti-viral activity against Influenza A (H1N1) infected in MDCK cells by MTS assay; format: functional, organism-based; settings: H
[8] = Distribution coefficient, log D of compound measured after 30 mins by HPLC/UV analysis; format: physicochemical; settings: octanol/water
[9] = Prodrug conversion in Normal human bronchial epithelial cells assessed as ((2R,3S,4R,5S)-5-(4-aminopyrrolo[2,1-f][1,2,4]triazin-7-yl)-2-cyano-3,4-dihydroxytetrahydrofuran-2-yl)methyl tetrahydrogen triphosphate formation measured per million cells at 10 uM incubated for 2 hrs by LC-MS/MS analysis; format: ADME, cell-based; settings: epithelial cell
[10] = Inhibition of RSV ribonucleoprotein complex in presence of [alpha-32P]ATP by Phosphor imaging analysis; set-up: species or system Respiratory syncytial virus
[11] = species on record: Homo sapiens; experiment: Inhibition of recombinant human DNA Pol-gamma assessed as single-nucleotide incorporation rate at 50 uM measured for 60 mins in presence of dATP by imaging analysis relative to control; set-up: scale not given: the % may be the effect or the level left
[12] = target: T1, DNA-directed RNA polymerase, mitochondrial; experiment: Inhibition of recombinant human POLRMT by Phosphor imaging analysis
[13] = species on record: Homo sapiens; experiment: Inhibition of recombinant human DNA Pol-alpha assessed as single-nucleotide incorporation rate at 50 uM measured for 60 mins in presence of dATP by imaging analysis relative to control; set-up: scale not given: the % may be the effect or the level left
[14] = test system: Enterovirus A71; experiment: Anti-viral activity against EV-71 (H) infected in human RD cells by MTS assay; format: functional, organism-based; settings: Enterovirus A
[15] = test system: enterovirus D68; experiment: Anti-viral activity against EV-D68 (18952) infected in human RD cells by MTS assay; format: functional, organism-based; settings: Enterovirus D, 18952, RD

T1 sequence (O00411 whole entry): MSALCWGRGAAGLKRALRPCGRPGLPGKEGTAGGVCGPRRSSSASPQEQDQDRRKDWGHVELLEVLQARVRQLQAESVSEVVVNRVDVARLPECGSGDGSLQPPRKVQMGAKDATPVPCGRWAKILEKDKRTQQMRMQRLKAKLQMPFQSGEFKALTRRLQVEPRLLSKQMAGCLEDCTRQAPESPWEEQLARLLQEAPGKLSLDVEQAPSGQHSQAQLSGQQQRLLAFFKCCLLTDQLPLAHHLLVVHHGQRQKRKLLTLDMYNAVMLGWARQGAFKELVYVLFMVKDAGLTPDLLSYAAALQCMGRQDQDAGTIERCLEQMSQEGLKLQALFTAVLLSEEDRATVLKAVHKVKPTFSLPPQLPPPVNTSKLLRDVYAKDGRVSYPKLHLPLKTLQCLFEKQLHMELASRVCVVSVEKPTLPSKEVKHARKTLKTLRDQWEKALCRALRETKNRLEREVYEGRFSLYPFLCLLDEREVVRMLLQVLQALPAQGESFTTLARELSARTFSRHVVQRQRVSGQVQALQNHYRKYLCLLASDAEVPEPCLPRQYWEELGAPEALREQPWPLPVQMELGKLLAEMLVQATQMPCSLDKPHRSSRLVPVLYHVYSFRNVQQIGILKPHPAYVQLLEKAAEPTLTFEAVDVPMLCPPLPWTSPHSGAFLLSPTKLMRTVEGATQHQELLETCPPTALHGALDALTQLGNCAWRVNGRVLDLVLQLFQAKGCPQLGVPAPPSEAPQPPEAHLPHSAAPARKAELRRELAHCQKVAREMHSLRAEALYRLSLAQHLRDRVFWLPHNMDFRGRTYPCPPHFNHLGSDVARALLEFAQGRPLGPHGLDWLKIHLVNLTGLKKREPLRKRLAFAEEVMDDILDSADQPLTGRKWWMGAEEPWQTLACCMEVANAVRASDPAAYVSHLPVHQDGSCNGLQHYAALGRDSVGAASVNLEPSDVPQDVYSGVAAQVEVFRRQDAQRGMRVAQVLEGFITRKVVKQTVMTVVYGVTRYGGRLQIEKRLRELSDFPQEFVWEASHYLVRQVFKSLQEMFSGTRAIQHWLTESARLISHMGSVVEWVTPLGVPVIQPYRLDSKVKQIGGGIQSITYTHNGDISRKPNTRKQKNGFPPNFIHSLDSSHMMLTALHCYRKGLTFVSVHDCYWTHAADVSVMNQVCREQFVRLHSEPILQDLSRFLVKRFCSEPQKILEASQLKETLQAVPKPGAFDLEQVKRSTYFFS

## C[C@]1(CO)O[C@@H](c2ccc3c(N)ncnn23)[C@H](O)[C@@H]1O
[1]
  EC50: > 50 µM
[2]
  EC50: 25.3 µM
[3]
  CC50 at 120 h: > 50 µM
[4]
  CC50: > 50 µM

## NC(=O)c1ncn([C@@H]2O[C@H](CO)[C@@H](O)[C@H]2O)n1 [RIBAVIRIN]
[5]
  EC50: 34.8 µM

## C[C@]1(COP(=O)(O)OP(=O)(O)OP(=O)(O)O)O[C@@H](c2ccc3c(N)ncnn23)[C@H](O)[C@@H]1O
[6]
  Activity: 3.2%

## N#C[C@]1(CO)O[C@@H](c2ccc3c(N)ncnn23)[C@H](F)[C@@H]1O
[1]
  EC50: 2.31 µM
[3]
  CC50 at 120 h: > 50 µM
[4]
  CC50: > 100 µM

## NC(=O)c1nc(F)cnc1O [FAVIPIRAVIR]
[7]
  EC50: 5.87 µM

## N#C[C@]1(CO)O[C@@H](c2ccc3c(N)ncnn23)[C@H](O)[C@@H]1O
[1]
  EC50: 6.23 µM
[2]
  EC50: 6.83 µM
[3]
  CC50 at 120 h: > 50 µM
[4]
  CC50: > 50 µM

## COC(=O)C(C)N[P@](=O)(OC[C@@]1(C#N)O[C@@H](c2ccc3c(N)ncnn23)[C@H](OC(C)=O)[C@@H]1OC(C)=O)Oc1ccccc1 (some centres undefined)
[1]
  EC50: 0.051 µM
[8]
  logD at 0.5 h: 2
[2]
  EC50: 0.127 µM
[3]
  CC50 at 120 h: 10.6 µM
[4]
  CC50: > 42 µM

## C[C@H](N[P@](=O)(OC[C@@]1(C#N)O[C@@H](c2ccc3c(N)ncnn23)[C@H](O)[C@@H]1O)Oc1ccccc1)C(=O)OC1CCCCC1
[1]
  EC50: 0.141 µM
[8]
  logD at 0.5 h: 2.2
[2]
  EC50: 0.148 µM
[9]
  Drug metabolism: 13 pM
[3]
  CC50 at 120 h: > 50 µM
[4]
  CC50: > 100 µM

## CCCOC(=O)[C@H](C)N[P@](=O)(OC[C@@]1(C#N)O[C@@H](c2ccc3c(N)ncnn23)[C@H](O)[C@@H]1O)Oc1ccccc1
[1]
  EC50: 0.168 µM
[8]
  logD at 0.5 h: 1.2
[2]
  EC50: 0.055 µM
[3]
  CC50 at 120 h: 10.3 µM
[4]
  CC50: > 50 µM

## N#C[C@]1(COP(=O)(O)OP(=O)(O)OP(=O)(O)O)O[C@@H](c2ccc3c(N)ncnn23)[C@H](O)[C@@H]1O
[10]
  IC50: 0.05 µM
[11]
  Activity: 0%
[6]
  Activity: 0.8%
[12]
  IC50: > 200 µM
[13]
  Activity: 0%

## CCOC(=O)[C@H](C)N[P@](=O)(OC[C@@]1(C#N)O[C@@H](c2ccc3c(N)ncnn23)[C@H](O)[C@@H]1O)Oc1ccccc1
[1]
  EC50: 0.932 µM
[8]
  logD at 0.5 h: 1.1
[2]
  EC50: 0.095 µM
[3]
  CC50 at 120 h: 28.7 µM
[4]
  CC50: > 100 µM

## N#C[C@]1(COP(=O)(O)OP(=O)(O)OP(=O)(O)O)O[C@@H](c2ccc3c(N)ncnn23)[C@H](F)[C@@H]1O
[10]
  IC50: 0.086 µM
[11]
  Activity: 2.3%
[6]
  Activity: 0.03%
[12]
  IC50: 115 µM
[13]
  Activity: 8.7%

## C=C[C@]1(COP(=O)(O)OP(=O)(O)OP(=O)(O)O)O[C@@H](c2ccc3c(N)ncnn23)[C@H](O)[C@@H]1O
[6]
  Activity: 0.96%

## [N-]=[N+]=N[C@]1(COP(=O)(O)OP(=O)(O)OP(=O)(O)O)O[C@@H](c2ccc3c(N)ncnn23)[C@H](O)[C@@H]1O
[10]
  IC50: 0.12 µM
[11]
  Activity: 0.62%
[6]
  Activity: 132%
[12]
  IC50: 1 µM
[13]
  Activity: 0%

## Nc1ncnn2c([C@@H]3O[C@](CCl)(COP(=O)(O)OP(=O)(O)OP(=O)(O)O)[C@@H](O)[C@H]3O)ccc12
[10]
  IC50: 1.1 µM
[6]
  Activity: 0.1%

## CCCOC(=O)[C@H](C)N[P@](=O)(OC[C@@]1(C#N)O[C@@H](c2ccc3c(N)ncnn23)[C@H](OC(=O)CC)[C@@H]1OC(=O)CC)Oc1ccccc1
[1]
  EC50: 0.056 µM
[8]
  logD at 0.5 h: 2.8
[2]
  EC50: 0.041 µM
[9]
  Drug metabolism: 165 pM
[3]
  CC50 at 120 h: 7.65 µM
[4]
  CC50: 27.3 µM

## CC(C)C(=O)O[C@H]1[C@H](c2ccc3c(N)ncnn23)O[C@](C#N)(CO[P@@](=O)(N[C@@H](C)C(=O)OC2CCCCC2)Oc2ccccc2)[C@H]1OC(=O)C(C)C
[1]
  EC50: 0.017 µM
[8]
  logD at 0.5 h: 4
[2]
  EC50: 0.06 µM
[9]
  Drug metabolism: 170 pM
[3]
  CC50 at 120 h: 8.7 µM
[4]
  CC50: 18.1 µM

## C[C@H](N[P@@](=O)(OC[C@@]1(C#N)O[C@@H](c2ccc3c(N)ncnn23)[C@H](O)[C@@H]1O)Oc1ccccc1)C(=O)OC1CCCCC1
[1]
  EC50: 0.63 µM
[2]
  EC50: 3.11 µM
[3]
  CC50 at 120 h: > 50 µM
[4]
  CC50: > 50 µM

## CC(C)OC(=O)[C@H](C)N[P@](=O)(OC[C@@]1(C#N)O[C@@H](c2ccc3c(N)ncnn23)[C@H](O)[C@@H]1O)Oc1ccccc1
[1]
  EC50: 0.933 µM
[8]
  logD at 0.5 h: 1.3
[2]
  EC50: 0.391 µM
[3]
  CC50 at 120 h: > 57 µM
[4]
  CC50: > 50 µM

## C[C@H](N[P@](=O)(OC[C@@]1(C#N)O[C@@H](c2ccc3c(N)ncnn23)[C@H](O)[C@@H]1O)Oc1ccccc1)C(=O)OC1CCOCC1
[1]
  EC50: > 4.3 µM
[8]
  logD at 0.5 h: 1.3
[2]
  EC50: 1.49 µM
[3]
  CC50 at 120 h: > 57 µM
[4]
  CC50: > 50 µM

## COC(=O)[C@H](C)N[P@](=O)(OC[C@@]1(C#N)O[C@@H](c2ccc3c(N)ncnn23)[C@H](O)[C@@H]1O)Oc1ccccc1
[1]
  EC50: 0.295 µM
[8]
  logD at 0.5 h: 1.1
[2]
  EC50: 0.122 µM
[9]
  Drug metabolism: 15 pM
[3]
  CC50 at 120 h: > 38 µM
[4]
  CC50: > 50 µM

## Nc1ncnn2c([C@@H]3O[C@H](CO)[C@@H](O)[C@H]3O)ccc12
[3]
  CC50 at 120 h: < 0.01 µM
[4]
  CC50: 0.037 µM

## [N-]=[N+]=N[C@]1(CO)O[C@@H](c2ccc3c(N)ncnn23)[C@H](O)[C@@H]1O
[1]
  EC50: 3.59 µM
[2]
  EC50: 2.02 µM
[3]
  CC50 at 120 h: > 50 µM
[4]
  CC50: > 50 µM

## CC(=O)O[C@H]1[C@H](c2ccc3c(N)ncnn23)O[C@](C#N)(CO[P@@](=O)(N[C@@H](C)C(=O)OC2CCCCC2)Oc2ccccc2)[C@H]1OC(C)=O
[1]
  EC50: 0.023 µM
[8]
  logD at 0.5 h: 2.9
[2]
  EC50: 0.206 µM
[9]
  Drug metabolism: 40 pM
[3]
  CC50 at 120 h: 29.8 µM
[4]
  CC50: > 49 µM

## Nc1ncnn2c([C@@H]3O[C@@](CO)(CCl)[C@@H](O)[C@H]3O)ccc12
[1]
  EC50: > 25 µM
[2]
  EC50: > 50 µM
[3]
  CC50 at 120 h: > 50 µM
[4]
  CC50: > 38 µM

## CCC(=O)O[C@H]1[C@H](c2ccc3c(N)ncnn23)O[C@](C#N)(CO[P@@](=O)(N[C@@H](C)C(=O)OC2CCCCC2)Oc2ccccc2)[C@H]1OC(=O)CC
[1]
  EC50: 0.041 µM
[8]
  logD at 0.5 h: 3.5
[2]
  EC50: 0.06 µM
[3]
  CC50 at 120 h: 17.1 µM
[4]
  CC50: 33.9 µM

## CC(C)S(=O)(=O)n1c(N)nc2ccc(/C(=N/O)c3ccccc3)cc21 [ENVIROXIME]
[14]
  EC50: 0.02 µM
[15]
  EC50: 0.22 µM

## CCCOC(=O)[C@H](C)N[P@](=O)(OC[C@@]1(C#N)O[C@@H](c2ccc3c(N)ncnn23)[C@H](OC(=O)C(C)C)[C@@H]1OC(=O)C(C)C)Oc1ccccc1
[1]
  EC50: 0.046 µM
[8]
  logD at 0.5 h: 3.3
[2]
  EC50: 0.036 µM
[9]
  Drug metabolism: 402 pM
[3]
  CC50 at 120 h: 4.92 µM
[4]
  CC50: 15.7 µM

## C=C[C@]1(CO)O[C@@H](c2ccc3c(N)ncnn23)[C@H](O)[C@@H]1O
[1]
  EC50: > 50 µM
[2]
  EC50: > 50 µM
[3]
  CC50 at 120 h: > 50 µM
[4]
  CC50: > 50 µM

## CCC(CC)OC(=O)[C@H](C)NP(=O)(OC[C@@]1(C#N)O[C@@H](c2ccc3c(N)ncnn23)[C@H](O)[C@@H]1O)Oc1ccccc1 (some centres undefined)
[1]
  EC50: 0.054 µM
[8]
  logD at 0.5 h: 2.1
[2]
  EC50: 0.029 µM
[3]
  CC50 at 120 h: 40.1 µM
[4]
  CC50: > 93 µM

## CCC(=O)O[C@H]1[C@H](c2ccc3c(N)ncnn23)O[C@](C#N)(CO[P@@](=O)(NC(C)C(=O)OC)Oc2ccccc2)[C@H]1OC(=O)CC (some centres undefined)
[1]
  EC50: 0.019 µM
[8]
  logD at 0.5 h: 2.2
[2]
  EC50: 0.092 µM
[9]
  Drug metabolism: 384 pM
[3]
  CC50 at 120 h: 3.33 µM
[4]
  CC50: 30 µM
